Values after ≈ are worked out from the molar mass of the structure shown.
Experiments:
Assay type in all cases: cell-based
[1] = system: E. cloacae 34654; assay: MIC determination, broth microdilution (CLSI); conditions: Enterobacter cloacae, 34654, strain 3
[2] = system: S. maltophilia ICB7569; assay: MIC determination, broth microdilution (CLSI); conditions: Stenotrophomonas maltophilia, ICB7569, strain 10
[3] = system: M. catarrhalis ICB489; assay: MIC determination, broth microdilution (CLSI); conditions: Moraxella catarrhalis, ICB489, strain 12
[4] = system: P. aeruginosa 2297-con (AmpC derepressed); assay: MIC determination, broth microdilution (CLSI); conditions: Pseudomonas aeruginosa, read-out: strain 8 MIC, strain 8
[5] = system: K. pneumoniae 60; assay: MIC determination, broth microdilution (CLSI); conditions: Klebsiella pneumoniae, 60, strain 2
[6] = system: M. morganii 126/3048; assay: MIC determination, broth microdilution (CLSI); conditions: Morganella morganii, 126/3048, strain 5
[7] = system: strain 21; assay: MIC determination, broth microdilution (CLSI)
[8] = system: H. influenzae ATCC 49247; assay: MIC determination, broth microdilution (CLSI); conditions: Haemophilus influenzae, ATCC49247, strain 13; read-out: strain 13 MIC
[9] = system: P. aeruginosa PAO1; assay: MIC determination, broth microdilution (CLSI); conditions: Pseudomonas aeruginosa, PAO1, strain 6
[10] = system: E. coli J62; assay: MIC determination, broth microdilution (CLSI); conditions: Escherichia coli, J62, strain 17; read-out: strain 17 MIC
[11] = system: strain 20; assay: MIC determination, broth microdilution (CLSI)
[12] = system: S. aureus 133; assay: MIC determination, broth microdilution (CLSI); conditions: Staphylococcus aureus, 133, strain 11; read-out: strain 11 MIC
[13] = system: P. aeruginosa 2297 (AmpC wt); assay: MIC determination, broth microdilution (CLSI); conditions: Pseudomonas aeruginosa, strain 7
[14] = system: S. pneumoniae 113; assay: MIC determination, broth microdilution (CLSI); conditions: Streptococcus pneumoniae, 113, strain 14; read-out: strain 14 MIC
[15] = system: B. fragilis 6688; assay: MIC determination, broth microdilution (CLSI); conditions: Bacteroides fragilis, 6688, strain 15; read-out: strain 15 MIC
[16] = system: E. coli J62-TEM-3; assay: MIC determination, broth microdilution (CLSI); conditions: Escherichia coli, J62TEM3, read-out: strain 18 MIC, strain 18
[17] = system: C. perfringens DSM756; assay: microbe, parasite or virus in culture; conditions: Clostridium perfringens, DSM756, read-out: strain 16 MIC, strain 16
[18] = system: C. freundii K21/3034; assay: MIC determination, broth microdilution (CLSI); conditions: Citrobacter freundii, K21/3034, strain 4
[19] = system: strain 19; assay: MIC determination, broth microdilution (CLSI)
[20] = system: E. coli ATCC25922; assay: MIC determination, broth microdilution (CLSI); conditions: Escherichia coli, ATCC25922, strain 1
[21] = system: A. baumannii ATCC15308; assay: MIC determination, broth microdilution (CLSI); conditions: Acinetobacter baumannii, ATCC15308, strain 9

| SMILES | MIC [1] [µg/mL] | MIC [2] [µg/mL] | MIC [3] [µg/mL] | MIC [4] [µg/mL] | MIC [5] [µg/mL] | MIC [6] [µg/mL] | MIC [7] [µg/mL] | MIC [8] [µg/mL] | MIC [9] [µg/mL] | MIC [10] [µg/mL] | MIC [11] [µg/mL] | MIC [12] [µg/mL] | MIC [13] [µg/mL] | MIC [14] [µg/mL] | MIC [15] [µg/mL] | MIC [16] [µg/mL] | MIC [17] [µg/mL] | MIC [18] [µg/mL] | MIC [19] [µg/mL] | MIC [20] [µg/mL] | other results |
| --- | --- | --- | --- | --- | --- | --- | --- | --- | --- | --- | --- | --- | --- | --- | --- | --- | --- | --- | --- | --- | --- |
| CC1(C)[C@H](NC(=O)/C(=N\OCCOc2ccc(C(=N)NCCNC=N)cc2)c2csc(N)n2)C(=O)N1OS(=O)(=O)O [Example 38] | 0.25 (≈ 0.409 µM) | 32 (≈ 52.3 µM) | ≤ 0.063 | 4 (≈ 6.54 µM) | 0.25 (≈ 0.409 µM) | 0.5 (≈ 0.817 µM) | 0.25 (≈ 0.409 µM) | ≤ 0.063 | 4 (≈ 6.54 µM) | 0.25 (≈ 0.409 µM) | 0.25 (≈ 0.409 µM) | ≤ 0.063 | 8 (≈ 13.1 µM) | 2 (≈ 3.27 µM) | 4 (≈ 6.54 µM) | 4 (≈ 6.54 µM) | 2 (≈ 3.27 µM) | 0.125 (≈ 0.204 µM) | 0.125 (≈ 0.204 µM) | 0.125 (≈ 0.204 µM) | MIC [21]: 0.25 µg/mL (≈ 0.409 µM) |
| CC1(C)[C@H](NC(=O)/C(=N\OCCOc2ccc(C(=N)N[C@H]3CCNC3)cc2)c2csc(N)n2)C(=O)N1OS(=O)(=O)O [Example 39, (2Z)-2-(2-Amino-1,3-thiazol-4-yl)-N-[(3S)-2,2-dimethyl-4-oxo-1-(sulfooxy)azetidin-3-yl]-2-{[2-(4-{N-[(3S)-pyrrolidin-3-yl]carbamimidoyl}phenoxy)ethoxy]imino}ethanamide] | 0.5 (≈ 0.819 µM) | 16 (≈ 26.2 µM) | 0.25 (≈ 0.409 µM) | 2 (≈ 3.28 µM) | 0.5 (≈ 0.819 µM) | 0.5 (≈ 0.819 µM) | 0.25 (≈ 0.409 µM) | 0.25 (≈ 0.409 µM) | 2 (≈ 3.28 µM) | 0.25 (≈ 0.409 µM) | 0.25 (≈ 0.409 µM) | ≤ 0.063 | 4 (≈ 6.55 µM) | 2 (≈ 3.28 µM) | 16 (≈ 26.2 µM) | 4 (≈ 6.55 µM) | 8 (≈ 13.1 µM) | 0.25 (≈ 0.409 µM) | 0.125 (≈ 0.205 µM) | 0.25 (≈ 0.409 µM) | MIC [21]: 0.5 µg/mL (≈ 0.819 µM) |

From US9556165B2 (priority 2012, dated 2017)
